# Read-outs that look alike come from different tables or passages of the source.
# How the values were obtained:
# Type in all cases: cell-based
# [1] = test system: E. coli NCTC 13351; assay: Antibacterial activity (MIC), agar dilution per CLSI; conditions: Escherichia coli, NCTC13351, Table 3, E. coli NCTC 13351 expressing ESBL, 16-20 hours, 35±2° C., read-out: MIC
# Protocol: (§1) The biological activity of representative compounds according to the invention against various bacterial strains was investigated. In a typical study, overnight grown bacterial cultures were diluted appropriately and inoculated on the agar media containing doubling dilutions of the test compounds. Observation for growth or no growth was performed after 16-20 hours of incubation at 35±2° C. in ambient air. The overall procedure was performed as per Clinical and Laboratory Standards Institute (CLSI) recommendations (Clinical and Laboratory Standards Institute (CLSI), Performance Standards for Antimicrobial Susceptibility Testing, 20th Informational Supplement, M 100-S20, Volume 30, No. 1, 2010).
# (§2) Table 3 details antibacterial activity of representative compounds according to the invention against various E. coli strains (NCTC 13351, M 50 and 7 MP) expressing ESBL (Extended Spectrum Beta Lactamases).
# [2] = test system: E. coli 7 MP; assay: as above; conditions: Escherichia coli, Table 3, E. coli 7 MP expressing ESBL, read-out: MIC
# Protocol: as §1, §2
# [3] = test system: E. coli M 50; assay: as above; conditions: Escherichia coli
# Protocol: as §1
# (§3) The activities are expressed as MICs (mcg/ml).
# [4] = test system: E. Coli H 484; assay: Antibacterial activity (MIC) against MDR Gram negative strains; conditions: Escherichia coli
# Protocol: as §1, §3
# [5] = test system: P. aeruginosa Ps 21; assay: as above; conditions: Pseudomonas aeruginosa, PS21
# Protocol: as §1, §3
# [6] = test system: E. Coli W 13351; assay: as above; conditions: Escherichia coli
# Protocol: as §1, §3
# [7] = test system: E. Coli M 44; assay: as above; conditions: Escherichia coli
# Protocol: as §1, §3
# [8] = test system: P. aeruginosa Ps 32; assay: as above; conditions: Pseudomonas aeruginosa, PS32
# Protocol: as §1, §3
# [9] = test system: E. Coli W 13352; assay: as above; conditions: Escherichia coli
# Protocol: as §1, §3
# [10] = test system: P. aeruginosa ATCC 27853; assay: as above; conditions: Pseudomonas aeruginosa, ATCC27853
# Protocol: as §1, §3
# [11] = test system: K. penumoniae S 48; assay: as above
# Protocol: as §1, §3
# [12] = test system: E. Coli W 13353; assay: as above; conditions: Escherichia coli
# Protocol: as §1, §3
# [13] = test system: E. Coli M 3; assay: as above; conditions: Escherichia coli
# Protocol: as §1, §3
# [14] = test system: K penumoniae H 523; assay: as above
# Protocol: as §1, §3
# [15] = test system: K penumoniae H 525; assay: as above
# Protocol: as §1, §3
# [16] = test system: K penumoniae H 521; assay: as above
# Protocol: as §1, §3
# [17] = test system: E. Coli B 89; assay: as above; conditions: Escherichia coli
# Protocol: as §1, §3
# [18] = M50, Table 3, E. coli M 50 expressing ESBL, agar dilution, read-out: MIC
# [19] = M50, Table 4, E. Coli M 50, Class C ESBL, MDR, read-out: MIC
# [20] = Table 4, E. Coli H 484, Class C ESBL, MDR, read-out: MIC
# [21] = Table 5, P. aeruginosa Ps 21, read-out: MIC
# [22] = Table 4, E. Coli W 13351, Class A ESBL, MDR, read-out: MIC
# [23] = Table 5, E. Coli M 44, Class B ESBL, MDR, read-out: MIC
# [24] = Table 5, P. aeruginosa Ps 32, read-out: MIC
# [25] = Table 4, E. Coli W 13352, Class A ESBL, MDR, read-out: MIC
# [26] = Table 5, P. aeruginosa ATCC 27853, read-out: MIC
# [27] = Table 5, K. penumoniae S 48, Class B ESBL, MDR, read-out: MIC
# [28] = Table 4, E. Coli W 13353, Class A ESBL, MDR, read-out: MIC
# [29] = Table 5, E. Coli M 3, Class B ESBL, MDR, read-out: MIC
# [30] = Table 4, K penumoniae H 523, KPC ESBL, MDR, read-out: MIC
# [31] = Table 4, K penumoniae H 525, KPC ESBL, MDR, read-out: MIC
# [32] = Table 4, K penumoniae H 521, KPC ESBL, MDR, read-out: MIC
# [33] = Table 4, E. Coli B 89, Class C ESBL, MDR, read-out: MIC
Structure (SMILES),MIC [1],MIC [2],"MIC [3, 18]","MIC [3, 19]","MIC [4, 20]","MIC [5, 21]","MIC [6, 22]","MIC [7, 23]","MIC [8, 24]","MIC [9, 25]","MIC [10, 26]","MIC [11, 27]","MIC [12, 28]","MIC [13, 29]","MIC [14, 30]","MIC [15, 31]","MIC [16, 32]","MIC [17, 33]",also measured
"O=C(CN1CCNCC1)NNC(=O)[C@H]1CC[C@@H]2CN1C(=O)N2OS(=O)(=O)O (relative stereo) [Example 19, trans-sulfuric acid mono-[2-(N′-(piperazin-4-yl-acetyl)-hydrazinocarbonyl)-7-oxo-1,6-diaza-bicyclo[3.2.1]oct-6-yl]ester]",1 µg/mL,2 µg/mL,1 µg/mL,2 µg/mL,4 µg/mL,> 32 µg/mL,2 µg/mL,1 µg/mL,> 32 µg/mL,2 µg/mL,32 µg/mL,4 µg/mL,2 µg/mL,1 µg/mL,1 µg/mL,1 µg/mL,1 µg/mL,1 µg/mL,–
"NCCCC(=O)NNC(=O)[C@H]1CC[C@@H]2CN1C(=O)N2OS(=O)(=O)O (relative stereo) [Example 9, trans-sulfuric acid mono-[2-(N′-(4-amino-butanoyl)-hydrazinocarbonyl)-7-oxo-1,6-diaza-bicyclo[3.2.1]oct-6-yl]ester]",1 µg/mL,4 µg/mL,2 µg/mL,1 µg/mL,2 µg/mL,8 µg/mL,1 µg/mL,0.5 µg/mL,16 µg/mL,1 µg/mL,8 µg/mL,1 µg/mL,1 µg/mL,2 µg/mL,0.5 µg/mL,0.5 µg/mL,1 µg/mL,1 µg/mL,–
"C[C@@H](O)[C@H]1C(=O)N2C(C(=O)O)=C(SCCN=CN)C[C@H]12 [Imipenem, reference compound]",–,–,–,0.5 µg/mL,4 µg/mL,> 32 µg/mL,0.25 µg/mL,32 µg/mL,> 32 µg/mL,0.25 µg/mL,4 µg/mL,16 µg/mL,0.25 µg/mL,8 µg/mL,16 µg/mL,16 µg/mL,16 µg/mL,0.5 µg/mL,–
"O=C(NNC(=O)[C@H]1CC[C@@H]2CN1C(=O)N2OS(=O)(=O)O)[C@@H]1CCCCN1 (mixture of isomers) [Example 17, trans-sulfuric acid mono-[2-(N′—((S)-piperidin-2-carbonyl)-hydrazinocarbonyl)-7-oxo-1,6-diaza-bicyclo[3.2.1]oct-6-yl]ester]",0.5 µg/mL,2 µg/mL,0.5 µg/mL,0.5 µg/mL,4 µg/mL,> 32 µg/mL,0.5 µg/mL,0.5 µg/mL,> 32 µg/mL,0.5 µg/mL,> 32 µg/mL,0.5 µg/mL,0.25 µg/mL,0.5 µg/mL,0.5 µg/mL,0.5 µg/mL,0.5 µg/mL,0.5 µg/mL,–
"O=C(NNC(=O)[C@@H]1CC[C@@H]2CN1C(=O)N2OS(=O)(=O)O)[C@@H]1CCCN1 [Example 1, trans-sulfuric acid mono-[2-(N′—[(S)-pyrrolidin-2-carbonyl]-hydrazinocarbonyl)-7-oxo-1,6-diaza-bicyclo[3.2.1]oct-6-yl]ester]",0.025 µg/mL,0.25 µg/mL,0.25 µg/mL,0.5 µg/mL,2 µg/mL,16 µg/mL,0.5 µg/mL,0.25 µg/mL,32 µg/mL,0.5 µg/mL,16 µg/mL,2 µg/mL,0.25 µg/mL,1 µg/mL,0.5 µg/mL,0.5 µg/mL,0.5 µg/mL,0.5 µg/mL,–
"C[C@H]1[C@H](NC(=O)/C(=N\OC(C)(C)C(=O)O)c2csc(N)n2)C(=O)N1S(=O)(=O)O [Aztreonam, reference compound]",–,–,–,> 32 µg/mL,> 32 µg/mL,8 µg/mL,> 32 µg/mL,> 32 µg/mL,8 µg/mL,> 32 µg/mL,2 µg/mL,> 32 µg/mL,> 32 µg/mL,> 32 µg/mL,> 32 µg/mL,> 32 µg/mL,> 32 µg/mL,> 32 µg/mL,–
"CN(C)c1cc(NC(=O)CNC(C)(C)C)c(O)c2c1C[C@H]1C[C@H]3[C@H](N(C)C)C(O)=C(C(N)=O)C(=O)[C@@]3(O)C(O)=C1C2=O [Tigecyclin, Tigecycline, reference compound]",–,–,–,–,–,–,–,–,–,–,–,–,–,–,–,–,–,–,MIC ([3]; M50): 0.5 µg/mL; MIC [4]: 0.25 µg/mL; MIC [5]: 16 µg/mL; MIC [6]: 1 µg/mL; MIC [7]: 0.25 µg/mL; MIC [8]: 16 µg/mL; MIC [9]: 0.25 µg/mL; MIC [10]: 16 µg/mL; MIC [11]: 1 µg/mL; MIC [12]: 1 µg/mL; MIC [13]: 4 µg/mL; MIC [14]: 8 µg/mL; MIC [15]: 2 µg/mL; MIC [16]: 2 µg/mL; MIC [17]: 0.5 µg/mL
"O=C(O)c1cn(C2CC2)c2cc(N3CCNCC3)c(F)cc2c1=O [Ciprofloxacin, reference compound]",–,–,–,–,–,–,–,–,–,–,0.5 µg/mL,–,–,–,8 µg/mL,32 µg/mL,32 µg/mL,–,–
